Results from the NIST ThermoML archive (doi:10.1016/j.tca.2014.11.028).

What was measured:
[1] = xn = mol fraction of the nth substance listed; settings: 101 kPa, Liquid, Vibrating tube method
[2] = 101 kPa, Liquid, Vibrating tube method

O=C(O)CC(=O)O [propanedioic acid] + C[N+](C)(C)CCO.[Cl-]
[1], x2 = 0.3333
Settings | mass density [kg/m3]
283.15 K | 1191.5
293.15 K | 1185.1
303.15 K | 1178.6
313.15 K | 1172.3
323.15 K | 1166
333.15 K | 1160.3
343.15 K | 1154
353.15 K | 1146.6
363.15 K | 1138.8

C[N+](C)(C)CCO.[Cl-] [choline chloride] + OCCO
[1], x1 = 0.3333
Settings | mass density [kg/m3]
283.15 K | 1122.9
293.15 K | 1117.1
303.15 K | 1111.4
313.15 K | 1105.7
323.15 K | 1100.1
333.15 K | 1094.7
343.15 K | 1088.7
353.15 K | 1081.9
363.15 K | 1074.4

O [water]
[2]
Settings | mass density [kg/m3]
283.15 K | 999.7
323.15 K | 988
333.15 K | 983.2
343.15 K | 977.8
353.15 K | 971.7
363.15 K | 965
